Results taken from ChEMBL document CHEMBL3272053, “(exo, exo)-2-Aryltropane-3-carboxylic esters, hypoglycemic agents with accompanying analgesic activity” (J Med Chem, 1978).
Calls of active or inactive are those of the source. The rule behind the calls is not given here.

Legend:
[1] = test system: Rattus norvegicus; experiment: Narcotic analgesic activity in fasted Sprague-Dawley rat at 240 mg/kg, po measured at 60 mins by D'Amour-Smith tail-flick test relative to control; assay type: functional
[2] = test system: Mus musculus; experiment: Analgesic activity in sc dosed Swiss-Webster mouse assessed as reduction of acetylcholine-induced writhing; assay type: functional
[3] = test system: Rattus norvegicus; experiment: Toxicity in Sprague-Dawley rat assessed as tremor at 240 mg/kg, po; assay type: organism-based; parameters: dose 240 mg/kg, route oral; details: in vivo
[4] = test system: Rattus norvegicus; experiment: Hypoglycemic activity in Sprague-Dawley rat assessed as reduction of blood glucose level at 88 mg/kg, po by glucagon-impaired glucose disposal test in presence of microsomal enzyme inhibitor SKF 525-A; assay type: functional, organism-based; parameters: dose 88 mg/kg
[5] = test system: Rattus norvegicus; experiment: Narcotic analgesic activity in fasted Sprague-Dawley rat at 120 mg/kg,sc measured at 30 mins by D'Amour-Smith tail-flick test in presence of opioid antagonist nalorphine; assay type: functional, organism-based; parameters: dose 120 mg/kg
[6] = test system: Rattus norvegicus; experiment: Hypoglycemic activity in Sprague-Dawley rat assessed as reduction of blood glucose level at 88 mg/kg, po by glucagon-impaired glucose disposal test in presence of opioid antagonist nalorphine; assay type: functional, organism-based; parameters: dose 88 mg/kg
[7] = organism: Rattus norvegicus; experiment: Narcotic analgesic activity in Sprague-Dawley rat at 15 mins by D'Amour-Smith tail-flick test in presence of microsomal enzyme inhibitor SKF 525-A; assay type: functional, organism-based
[8] = test system: Rattus norvegicus; experiment: Hypoglycemic activity in sc dosed fasted Sprague-Dawley rat assessed as reduction of blood glucose level measured for 0.5 to 2 hrs; assay type: functional, organism-based
[9] = test system: Rattus norvegicus; experiment: Hypoglycemic activity in Sprague-Dawley rat assessed as reduction of blood glucose level at 100 mg/kg, po by glucagon-impaired glucose disposal test relative to control; assay type: functional; parameters: scale not given: the % may be the effect or the level left
[10] = test system: Rattus norvegicus; experiment: Hypoglycemic activity in glucose loaded Sprague-Dawley rat assessed as reduction of blood glucose level at 100 mg/kg, po relative to control; assay type: functional; parameters: scale not given: the % may be the effect or the level left
[11] = test system: Rattus norvegicus; experiment: Narcotic analgesic activity in fasted Sprague-Dawley rat at 240 mg/kg, po measured at 15 mins by D'Amour-Smith tail-flick test relative to control; assay type: functional
[12] = test system: Mus musculus; experiment: Analgesic activity in Swiss-Webster mouse assessed as reduction of acetylcholine-induced writhing at 75 mg/kg, sc relative to control; assay type: functional; parameters: scale not given: the % may be the effect or the level left; details: route subcutaneous
[13] = test system: Rattus norvegicus; experiment: Toxicity in Sprague-Dawley rat assessed as rigidity at 240 mg/kg, po; assay type: organism-based; parameters: dose 240 mg/kg, route oral; details: in vivo
[14] = test system: Rattus norvegicus; experiment: Toxicity in Sprague-Dawley rat assessed as hyperexcitability at 240 mg/kg, po; assay type: organism-based; parameters: dose 240 mg/kg, route oral; details: in vivo
[15] = test system: Rattus norvegicus; experiment: Hypoglycemic activity in glucose loaded Sprague-Dawley rat assessed as reduction of blood glucose level at 100 mg/kg, po in presence of microsomal enzyme inhibitor SKF 525-A; assay type: functional, organism-based; parameters: dose 100 mg/kg
[16] = test system: Rattus norvegicus; experiment: Hypoglycemic activity in fasted Sprague-Dawley rat assessed as reduction of blood glucose level at 100 mg/kg, po relative to control; assay type: functional; parameters: scale not given: the % may be the effect or the level left
[17] = test system: Rattus norvegicus; experiment: Narcotic analgesic activity in po dosed fasted Sprague-Dawley rat measured at 15 mins by D'Amour-Smith tail-flick test; assay type: functional; details: 0.25 h
[18] = test system: Mus musculus; experiment: Analgesic activity in po dosed Swiss-Webster mouse assessed as reduction of acetylcholine-induced writhing; assay type: functional
[19] = test system: Mus musculus; experiment: Toxicity in Swiss-Webster mouse assessed as stimulation of straub tail at 150 mg/kg, po after 15 to 25 mins; assay type: organism-based; parameters: dose 150 mg/kg, route oral; details: in vivo
[20] = test system: Rattus norvegicus; experiment: Narcotic analgesic activity in fed Sprague-Dawley rat at 120 mg/kg, sc measured at 30 mins by D'Amour-Smith tail-flick test; assay type: functional; details: route subcutaneous
[21] = test system: Rattus norvegicus; experiment: Toxicity in Sprague-Dawley rat assessed as tremor at 120 mg/kg, sc; assay type: organism-based; parameters: dose 120 mg/kg, route subcutaneous; details: in vivo
[22] = test system: Mus musculus; experiment: Toxicity in Swiss-Webster mouse assessed as sedation at 40 mg/kg, sc; assay type: organism-based; parameters: dose 40 mg/kg, route subcutaneous; details: in vivo
[23] = test system: Rattus norvegicus; experiment: Hypoglycemic activity in Sprague-Dawley rat assessed as reduction of blood glucose level at 88 mg/kg, po by glucagon-impaired glucose disposal test relative to control; assay type: functional; parameters: scale not given: the % may be the effect or the level left
[24] = test system: Rattus norvegicus; experiment: Narcotic analgesic activity in po dosed fasted Sprague-Dawley rat measured at 60 mins by D'Amour-Smith tail-flick test; assay type: functional
[25] = test system: Rattus norvegicus; experiment: Narcotic analgesic activity in sc dosed fed Sprague-Dawley rat measured at 30 mins by D'Amour-Smith tail-flick test; assay type: functional; details: Rattus norvegicus, Sprague-Dawley, Tail, sc, 0.5 h; read-out: ED50
[26] = test system: Rattus norvegicus; experiment: Toxicity in Sprague-Dawley rat assessed as rigidity at >=120 mg/kg, po; assay type: organism-based; details: in vivo
[27] = test system: Rattus norvegicus; experiment: Analgesic activity in po dosed rat assessed as reduction of intraarterial bradykinin-induced pain response; assay type: functional
[28] = test system: Rattus norvegicus; experiment: Toxicity in Sprague-Dawley rat assessed as tremor at >= 120 mg/kg, po; assay type: organism-based; parameters: dose 120 mg/kg, route oral; details: in vivo
[29] = test system: Rattus norvegicus; experiment: Toxicity in Sprague-Dawley rat assessed as hyperexcitability at >= 120 mg/kg, po; assay type: organism-based; parameters: dose 120 mg/kg, route oral; details: in vivo
[30] = test system: Rattus norvegicus; experiment: Toxicity in Sprague-Dawley rat assessed as mortality at >= 120 mg/kg, po; assay type: organism-based; parameters: dose 120 mg/kg, route oral; details: in vivo
[31] = test system: Rattus norvegicus; experiment: Potency index, ratio of codeine ED50 to compound ED50 for analgesic activity in po dosed rat assessed as reduction of intraarterial bradykinin-induced pain response; assay type: functional
[32] = test system: Rattus norvegicus; experiment: Toxicity in Sprague-Dawley rat assessed as convulsion at 240 mg/kg, po; assay type: organism-based; parameters: dose 240 mg/kg, route oral; details: in vivo
[33] = test system: Rattus norvegicus; experiment: Toxicity in fasted Sprague-Dawley rat assessed as mortality at 240 mg/kg, po measured at 60 mins; assay type: organism-based; parameters: dose 240 mg/kg, route oral; details: in vivo, 1 h
[34] = test system: Rattus norvegicus; experiment: Narcotic antagonist activity in fed Sprague-Dawley rat assessed as decrease in phenazocine-induced analgesic activity at 80 mg/kg, sc; assay type: functional; parameters: scale not given: the % may be the effect or the level left; details: route subcutaneous
[35] = test system: Rattus norvegicus; experiment: Hypoglycemic activity in glucose/glycogen loaded Sprague-Dawley rat assessed as reduction of blood glucose level at 87 mg/kg, po; assay type: functional, organism-based; parameters: dose 87 mg/kg
[36] = test system: Rattus norvegicus; experiment: Hypoglycemic activity in glucose loaded Sprague-Dawley rat assessed as reduction of blood glucose level at 64 mg/kg, po relative to control; assay type: functional; parameters: scale not given: the % may be the effect or the level left
[37] = test system: Mus musculus; experiment: Analgesic activity in Swiss-Webster mouse assessed as reduction of acetylcholine-induced writhing at 50 mg/kg, po relative to control; assay type: functional; parameters: scale not given: the % may be the effect or the level left
[38] = Mus musculus, Swiss-Webster, sc, read-out: ED50

COC(=O)[C@H]1C[C@H]2CC[C@H]([C@H]1c1ccccc1)N2C (stereo in doubt; (+)-5)
Activity [1]: 59%
ED50 [2]: 11 mg/kg
Activity [3]: Toxic

COC(=O)[C@H]1C[C@H]2CC[C@H]([C@H]1c1cccs1)N2C (racemic)
Activity [4]: inactive
Activity [5]: inactive
Activity [6]: Active
Activity [7]: inactive
Activity [8]: inactive

COC(=O)[C@H]1C[C@H]2CC[C@H]([C@H]1c1ccc(O)cc1)N2C
Activity [9]: <20%

CCOCCN1[C@@H]2CC[C@@H]1[C@@H](c1cccs1)[C@@H](C(=O)OC)C2
Activity [10]: 73%
Activity [11]: 100%
Activity [12]: 67%
Activity [3]: Toxic
Activity [13]: Toxic
Activity [14]: Toxic
Activity [15]: inactive

COC(=O)[C@H]1C[C@H]2CC[C@H]([C@H]1c1cccs1)N2CC1CCCO1 (stereo partly specified)
Activity [16]: 39%
Activity [11]: 72%

CCOC(CN1[C@@H]2CC[C@@H]1[C@@H](c1cccs1)[C@@H](C(=O)OC)C2)OCC
Activity [16]: 47%
Activity [11]: 87%
Activity [12]: 27%

CCOC(=O)[C@H]1C[C@H]2CC[C@H]([C@H]1c1cccs1)N2C
Activity [9]: <20%
ED50 [17]: 95 mg/kg
ED50 [18]: 21 mg/kg
Activity [19]: Toxic

COC(=O)[C@H]1C[C@H]2CC[C@H]([C@H]1c1ccccc1)N2C.Cl (racemic)
Activity [20]: <20%
ED50 [2, 38]: 12 mg/kg
Activity [21]: Toxic
Activity [22]: Toxic
Activity [23]: 24%

COC(=O)[C@H]1C[C@H]2CC[C@H]([C@H]1c1cccs1)N2C.Cl
ED50 [24]: 59 mg/kg
ED50 [25]: 60 mg/kg
Activity [26]: Toxic
ED50 [27]: 6.9 mg/kg
Activity [28]: Toxic
Activity [29]: Toxic
Activity [30]: Toxic
Ratio ED50 [31]: >10
Activity ([23]; 88 mg/kg): 75%

COC(=O)[C@H]1C[C@H]2CC[C@H]([C@H]1c1cccs1)N2Cc1ccccc1
Activity [9]: <20%
Activity [20]: <20%
Activity [12]: 33%

COC(=O)[C@H]1C[C@H]2CC[C@H]([C@H]1c1ccccc1)N2C (stereo in doubt; (-)-5)
ED50 [2, 38]: 18 mg/kg
Activity [32]: Toxic
Activity [33]: Toxic
Activity [34]: 73%

COC(=O)[C@H]1CCCN(C)[C@@H]1c1cccs1 (relative stereo)
Activity [35]: inactive

COC(=O)[C@H]1C[C@H]2CC[C@H]([C@H]1c1cccs1)N2CCCO.Cc1ccc(S(=O)(=O)O)cc1
Activity [36]: 27%
Activity [11]: 92%
Activity [37]: 33%
Activity [32]: Toxic
Activity [3]: Toxic
Activity [13]: Toxic

COC(=O)[C@H]1C[C@H]2CC[C@H]([C@H]1c1cccs1)N2CCc1ccccc1
Activity [16]: 29%
Activity [11]: 96%
Activity [12]: 27%
